# Results reported in patent US7279336B2, “Methods and compositions for enhanced plant cell transformation” (priority 2002, dated 2007).
# Experiments:
# [1] = system: maize immature embryos; assay: Maize transformation experiments with control or histone H2A-1 T-DNA binary vector, with or without anti-oxidant; assay type: cell-based
# Description: 2. Kan Wang at the Plant Transformation Facility, Iowa State University tested for the present invention in two different Agrobacterium strains. One contains a T-DNA binary vector with a herbicide resistance gene in the T-DNA (this is the control construction)1. The other strain contains a similar T-DAN binary vector, but in addition to the herbicide resistance gene the T-DNA contains the Arabidopsis histone H2A-1 cDNA under the control of maize adh1 promoter and intron. These strains were used in four rounds of maize transformation experiments. […] Several thousand transformations (using the control vector without the histone gene) produced virtually no transformants. In these experiments, there were no transformants (using the control strain) without L-cysteine.
# [2] = system: Japonica rice explants; conditions: 80 mg/L Cys; cited from earlier work
# [3] = system: immature zygotic embryos of the maize hybrid line Hi II; assay: Agrobacterium tumefaciens (EHA101, standard binary vector pTF102) transformation of maize Hi II immature zygotic embryos
# Description: A. tumefaciens strain EHA101 (Hood et al., 1986) containing the standard binary vector pTF102 (12.1 kb) was used in all experiments. […] This vector system, pTF 102 in EHA 101, was maintained on yeast extract peptone (YEP) medium (An et al., 1988) containing 100 mg/L spectinomycin (for pTF102) and 50 mg/L kanamycin (for EHA101). Bacteria cultures for weekly experiments were initiated from stock plates that were stored for up to 1 month at 4° C. before being refreshed from long-term, 80° C. glycerol stocks. In all experiments, bacteria cell densities were adjusted to an optical density (OD550) between 0.35 to 0.45 using a spectrophotometer immediately before embryo infection.
# F2 immature zygotic embryos (1.5-2.0 mm) of the maize (Zea mays) Hi II hybrid genotype (Armstrong et al., 1991) were aseptically dissected from greenhouse-grown ears harvested 10 to 13 d post pollination. Ears were stored up to 3 d at 4° C. before dissection.
# Infection, cocultivation, resting, and selection media were after Zhao et al. (1999) except that cocultivation medium was modified to contain Cys. All these media contained N6 salts and vitamins (Chu et al., 1975), 1.5 mg/L 2,4-dichlorophenoxyacetic acid, and 0.7 g L1 L-Pro in addition to the following ingredients: infection medium contained 68.4 g/L Suc and 36 g/L Glc (pH 5.2) and was supplemented with 100 μM AS (Sigma, St. Louis) before use; cocultivation medium contained 30 g/L Suc, 0.85 mg/L silver nitrate, 100 μM AS, and 3 g/L gelrite (pH 5.8); resting medium contained 30 g/L Suc, 0.5 g/L MES, 0.85 mg/L silver nitrate, 250 mg/L cefotaxime, and 8 g/L purified agar (pH 5.8). Selection medium was identical to resting medium with the addition of 1.5 or 3 mg/L bialaphos (Shinyo Sanyo, Tokyo). Infection medium was filter sterilized, whereas all other media were autoclaved. AS stock solutions (100 mM) were prepared by dissolving AS in 100% (v/v) dimethyl sulfoxide (DMSO) to make a 200 mM stock which was then diluted (1:1 [v/v]) with sterile water and stored in small aliquots at 20° C. Cys was added to cocultivation medium after autoclaving from freshly prepared, filter-sterilized stocks (100 mg/mL) and cocultivation medium was used within 2 to 5 d of preparation. Regeneration I medium contained Murashige and Skoog salts and vitamins (Murashige and Skoog, 1962), 60 g/L Suc, 100 mg/L myo-inositol, no hormones, and 3 g/L gelrite (pH 5.8) after Armstrong and Green (1985). Cefotaxime (250 mg/L) and bialaphos (3 mg/L) were added to this medium after autoclaving. Regeneration II medium differed from medium I in that it contained 30 g/L Suc and no bialaphos.
smiles,measurement,setting,value
N[C@@H](CS)C(=O)O [L-cysteine],infected immature embryos giving transformants,"[1]; control vector without histone gene, with L-cysteine, no transformants without L-cysteine",2-3%
same,transformation,[1]; histone gene vector and L-cysteine,2-3%
same,impact on embryogenesis,[2],negative impact
same,T-DNA delivery to embryogenic-competent scutellum cells of infected embryos,[3]; 400 mg/L Cys in cocultivation medium,increased
same,stable transformation rates,"[3]; Cys as low as 100 mg/L, compared with 400 mg/L, better embryo recovery",Comparable
same,transient glucuronidase expression in targeted cells,"[3]; L-cysteine in cocultivation medium, 400 mg/L",improvement
same,embryo response after cocultivation,"[3]; L-cysteine in cocultivation medium, 400 mg/L vs 0 mg/L",decrease
